Measured values from US7662810B2, “2-arylmethylazetidine carbapenem derivatives and preparation thereof” (Korea Research Institute of Chemical Technology, priority 2004, dated 2010).

What was measured:
[1] = target: T1, Dihydropeptidase-1 (DHP-1) (Sus scrofa, UniProt P22412)
T1 sequence (P22412 17-384): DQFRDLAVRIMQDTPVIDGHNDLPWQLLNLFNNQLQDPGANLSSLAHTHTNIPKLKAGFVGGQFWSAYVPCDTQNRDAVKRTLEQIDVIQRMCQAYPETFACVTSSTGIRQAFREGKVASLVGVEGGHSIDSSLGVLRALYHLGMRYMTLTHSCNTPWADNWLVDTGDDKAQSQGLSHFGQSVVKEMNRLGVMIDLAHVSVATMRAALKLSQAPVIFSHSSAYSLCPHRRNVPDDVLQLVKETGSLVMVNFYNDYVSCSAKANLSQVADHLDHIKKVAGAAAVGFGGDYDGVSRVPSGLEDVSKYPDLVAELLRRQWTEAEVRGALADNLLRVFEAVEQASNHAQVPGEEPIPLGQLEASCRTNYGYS
Description: The rate of degradation of the inventive compounds by the action of DHP-1 enzyme extracted from hog kidney was determined as follow.
0.2 unit of the enzyme was allowed to react with the above solution at 30° C., and the absorbance at 299 nm of the remaining medicament was measured to determine the degradation rate. The absorbance was measured at 0, 0.5, 1, 2 and 4 hour points, and T1/2, the time when the concentration of the medicament become the half, was obtained by regression analysis.

[2] = system: Enterobacter cloacae 1321 E; test: Measurement of Minimum Inhibitory Concentration (MIC); type: cell-based
Description: (§1) The antibacterial activities of the compounds of the present invention prepared in the above Examples against Gram-positive and Gram-negative bacteria, MRSA and QRS were tested as follows.
(§2) Respective bacterial strains were inoculated into 3 ml of Fleisch extract broth (beef extract 1%, peptone 1%, NaCl 0.3%, Na2HPO4.12H2O 0.2%, pH 7.4-7.5. 10% horse serum was supplemented for Streptococcus pyogenes and S. facium) and cultured on a shaking incubator at 37° C. for 18 hours. About 10^4 CFU/spot of the cultured bacterial strains were inoculated onto Müller-Hinton agar plates containing serial double dilutions (final concentration of 0.002 to 100 μg/ml) of a test compound employing an automatic inoculator (Dynatech, USA), and incubated at 37° C. for 18 hours. When the incubation was completed, the minimum inhibitory concentration was determined. Meropenem (Yuhan corporation, Korea) and vancomycin (Cj Inco., Korea) were used as standard antibiotics, respectively.

[3] = system: Enterobacter cloacae P 99; test: as above; type: cell-based
Description: as §1, §2

[4] = system: Escherichia coli 078; test: as above; type: cell-based
Description: as §1, §2

[5] = system: Escherichia coli 1507 E; test: as above; type: cell-based
Description: as §1, §2

[6] = system: Escherichia coli DC 0; test: as above; type: cell-based
Description: as §1, §2

[7] = system: Escherichia coli DC 2; test: as above; type: cell-based
Description: as §1, §2

[8] = system: Escherichia coli TEM; test: as above; type: cell-based; settings: Escherichia coli TEM
Description: as §1, §2

[9] = system: Klebsiella aerogenes 1522 E; test: as above; type: cell-based
Description: as §1, §2

[10] = system: Klebsiella oxytoca 1082 E; test: as above; type: cell-based
Description: as §1, §2

[11] = system: Salmonella typhimurium 179; test: as above; type: cell-based; settings: Salmonella typhimurium 179
Description: as §1, §2

[12] = system: Staphylococcus aureus 285; test: as above; type: cell-based
Description: as §1, §2

[13] = system: Staphylococcus aureus 503; test: as above; type: cell-based
Description: as §1, §2

[14] = system: Staphylococcus faecium MD 8b; test: as above; type: cell-based; settings: Staphylococcus faecium MD 8b
Description: as §1, §2

[15] = system: Staphylococcus pyogenes 308A; test: as above; type: cell-based; settings: Staphylococcus pyogenes 308A
Description: as §1, §2

[16] = system: Staphylococcus pyogenes 77A; test: as above; type: cell-based; settings: Staphylococcus pyogenes 77A
Description: as §1, §2

[17] = system: Staphylococcus aureus 121E; test: Measurement of Minimum Inhibitory Concentration (MIC), MRSA; type: cell-based; settings: Staphylococcus aureus 121E
Description: as §1, §2

[18] = system: Staphylococcus aureus 208E; test: as above; type: cell-based; settings: Staphylococcus aureus 208E
Description: as §1, §2

[19] = system: Staphylococcus aureus 256E; test: as above; type: cell-based; settings: Staphylococcus aureus 256E
Description: as §1, §2

[20] = system: Staphylococcus aureus 690E; test: as above; type: cell-based; settings: Staphylococcus aureus 690E
Description: as §1, §2

[21] = system: Staphylococcus aureus 692E; test: as above; type: cell-based; settings: Staphylococcus aureus 692E
Description: as §1, §2

[22] = system: Staphylococcus aureus 693E; test: as above; type: cell-based; settings: Staphylococcus aureus 693E
Description: as §1, §2

[23] = system: Staphylococcus aureus 694E; test: as above; type: cell-based; settings: Staphylococcus aureus 694E
Description: as §1, §2

[24] = system: Staphylococcus aureus 695E; test: as above; type: cell-based; settings: Staphylococcus aureus 695E
Description: as §1, §2

[25] = system: Staphylococcus aureus 697E; test: as above; type: cell-based; settings: Staphylococcus aureus 697E
Description: as §1, §2

[26] = system: Staphylococcus aureus 88E; test: as above; type: cell-based; settings: Staphylococcus aureus 88E
Description: as §1, §2

[27] = system: Staphylococcus aureus 179; test: Measurement of Minimum Inhibitory Concentration (MIC), QRS; type: cell-based; settings: QRS, Staphylococcus aureus 179
Description: as §1, §2

[28] = system: Staphylococcus aureus 241; test: as above; type: cell-based; settings: QRS, Staphylococcus aureus 241
Description: as §1, §2

[29] = system: Staphylococcus aureus 293; test: as above; type: cell-based; settings: QRS, Staphylococcus aureus 293
Description: as §1, §2

[30] = system: Staphylococcus epidermidis 178; test: as above; type: cell-based; settings: QRS, Staphylococcus epidermidis 178
Description: as §1, §2

[31] = system: Staphylococcus epidermidis 291; test: as above; type: cell-based; settings: QRS, Staphylococcus epidermidis 291
Description: as §1, §2

For COc1cccc(CN2CC(SC3=C(C(=O)[O-])N4C(=O)[C@H]([C@@H](C)O)[C@H]4[C@H]3C)C2)c1.[K+] [Exam. 15, Potassium(1R,5S,6S)-2-[1-(3-methoxybenzyl)-azetidine-3-yl-thio]-6-[(1R)-1-hydroxylethyl]-1-methylcarbapen-2-em-3-carboxylate], the “Relative T1/2” value [1] was 1.54 and the “T1/2 (time when the concentration of the medicament become the half)” value [1] was 28.16.

For COc1ccccc1CN1CC(SC2=C(C(=O)[O-])N3C(=O)[C@H]([C@@H](C)O)[C@H]3[C@H]2C)C1.[K+] [Exam. 16, Potassium(1R,5S,6S)-2-[1-(2-methoxybenzyl)-azetidine-3-yl-thio]-6-[(1R)-1-hydroxylethyl]-1-methylcarbapen-2-em-3-carboxylate], the MIC [2] was 0.098 µg/mL, the MIC [3] was 0.391 µg/mL and the MIC [4] was 0.098 µg/mL. For the same molecule, the MIC [5] was 0.195 µg/mL, the MIC [6] was 0.781 µg/mL and the MIC [7] was 0.049 µg/mL. For the same molecule, the MIC [8] was 0.195 µg/mL, the MIC [9] was 0.391 µg/mL and the MIC [10] was 0.098 µg/mL. It also gave an MIC [11] of 0.098 µg/mL, an MIC [12] of 0.025 µg/mL and an MIC [13] of 0.013 µg/mL. The MIC [14] was 1.563 µg/mL, the MIC [15] was 0.002 µg/mL and the MIC [16] was 0.002 µg/mL. The MIC [17] was 0.025 µg/mL, the MIC [18] was 0.025 µg/mL and the MIC [19] was 0.025 µg/mL. The MIC [20] was 0.195 µg/mL, the MIC [21] was 0.049 µg/mL and the MIC [22] was 1.563 µg/mL. The MIC [23] was 0.049 µg/mL, the MIC [24] was 0.049 µg/mL and the MIC [25] was 0.025 µg/mL. It also gave an MIC [26] of 0.025 µg/mL, an MIC [27] of 0.049 µg/mL and an MIC [28] of 0.025 µg/mL. For the same molecule, the MIC [29] was 0.098 µg/mL, the MIC [30] was 0.195 µg/mL and the MIC [31] was 0.391 µg/mL. For the same molecule, the “T1/2 (time when the concentration of the medicament become the half)” value [1] was 200.91 and the “stability against hydrolysis by DHP-1 (in words)” value [1] was “very stable”.

COc1ccc(CN2CC(SC3=C(C(=O)[O-])N4C(=O)[C@H]([C@@H](C)O)[C@H]4[C@H]3C)C2)cc1OC.[K+] [Exam. 17, Potassium(1R,5S,6S)-2-[1-(3,4-dimethoxybenzyl)-azetidine-3-yl-thio]-6-[(1R)-1-hydroxylethyl]-1-methylcarbapen-2-em-3-carboxylate] showed an MIC [2] of 0.391 µg/mL, an MIC [3] of 0.781 µg/mL and an MIC [4] of 0.098 µg/mL. For the same molecule, the MIC [5] was 0.391 µg/mL, the MIC [6] was 0.781 µg/mL and the MIC [7] was 0.049 µg/mL. The MIC [8] was 0.391 µg/mL, the MIC [9] was 0.391 µg/mL and the MIC [10] was 0.098 µg/mL. The MIC [11] was 0.098 µg/mL, the MIC [12] was 0.025 µg/mL and the MIC [13] was 0.013 µg/mL. The MIC [14] was 1.563 µg/mL, the MIC [15] was 0.002 µg/mL and the MIC [16] was 0.002 µg/mL. The MIC [17] was 0.098 µg/mL, the MIC [18] was 0.049 µg/mL and the MIC [19] was 0.049 µg/mL. For the same molecule, the MIC [20] was 0.781 µg/mL, the MIC [21] was 0.195 µg/mL and the MIC [22] was 0.391 µg/mL. It also gave an MIC [23] of 0.098 µg/mL, an MIC [24] of 0.098 µg/mL and an MIC [25] of 0.098 µg/mL. For the same molecule, the MIC [26] was 0.195 µg/mL, the MIC [27] was 0.098 µg/mL and the MIC [28] was 0.195 µg/mL. It also gave an MIC [29] of 0.391 µg/mL, an MIC [30] of 0.781 µg/mL and an MIC [31] of 1.563 µg/mL. The “T1/2 (time when the concentration of the medicament become the half)” value [1] was 27.45.

In the case of C[C@@H](O)[C@H]1C(=O)N2C(C(=O)[O-])=C(SC3CN(Cc4ccc(Cl)cc4)C3)[C@H](C)[C@H]12.[K+] [Exam. 18, Potassium(1R,5S,6S)-2-[1-(4-chlorobenzyl)-azetidine-3-yl-thio]-6-[(1R)-1-hydroxylethyl]-1-methylcarbapen-2-em-3-carboxylate], the “Relative T1/2” value [1] is reported as 0.84 and the “T1/2 (time when the concentration of the medicament become the half)” value [1] is reported as 15.36.
